Read-outs that look alike come from different tables or passages of the source.
Legend:
Experiment in all cases: biochemical
ERK8 = target: T1, ERK8 (Homo sapiens, UniProt Q8TD08); conditions: read-out: ERK8 activity as percentage of control without inhibitor
T1 sequence (Q8TD08 1-544): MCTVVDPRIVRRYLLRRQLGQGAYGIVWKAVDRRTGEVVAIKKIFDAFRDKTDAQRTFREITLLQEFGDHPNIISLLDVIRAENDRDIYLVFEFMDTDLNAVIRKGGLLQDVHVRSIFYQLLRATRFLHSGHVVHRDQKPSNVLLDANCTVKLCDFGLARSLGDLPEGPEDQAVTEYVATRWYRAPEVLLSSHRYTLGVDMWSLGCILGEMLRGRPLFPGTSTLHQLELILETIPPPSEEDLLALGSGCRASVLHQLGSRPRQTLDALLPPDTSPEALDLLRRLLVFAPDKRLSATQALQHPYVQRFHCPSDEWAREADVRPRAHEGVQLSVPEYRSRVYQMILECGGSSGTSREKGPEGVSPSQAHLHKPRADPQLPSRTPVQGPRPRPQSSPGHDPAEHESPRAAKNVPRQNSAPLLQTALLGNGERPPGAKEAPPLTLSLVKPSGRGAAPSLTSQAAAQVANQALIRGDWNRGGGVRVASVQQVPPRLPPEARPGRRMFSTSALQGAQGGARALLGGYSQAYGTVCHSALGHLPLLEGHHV
Procedure: (§1) All assays (25.5 μl) were carried out at room temperature (21° C.) and were linear with respect to time and enzyme concentrations under the conditions used. Assays were performed for 30 minutes except assays for LCK and PKB which were performed for 15 minutes using Multidrop Micro reagent dispensers (Thermo Electron Corporation, Waltham, Mass. 02454, USA) in a 96-well format. The concentration of […] [γ-^33P] ATP (800 cpm/pmol) in the assays was one of three concentrations (5, 20 or 50 μM) in order to be at or below Km for ATP for the enzyme. Assays were initiated with MgATP and stopped by addition of 5 μl of 0.5M orthophosphoric acid. Assays were then harvested onto P81 filterplates using a unifilter harvester (PerkinElmer, Boston, Mass. 02118, USA), with a wash buffer of 50 mM orthophosphoric acid. Filterplates were then air dried overnight. 10 μl of Microscint O was added per well prior to counting for radioactivity.
(§2) The following kinases were assayed against the substrates indicated. Aurora B was assayed against the substrate peptide […] (300 μM), ERK8 and MST-2 were both assayed against MBP (0.33 mg/ml). IKKβ was assayed against the substrate peptide […] (300 μM), JNK3 was assayed against 3 μM ATF2[19-96]. MAPKAP-K3 and PKD1 were both assayed against […] (30 μM), MARK3 was assayed against CHKtide ([…]) substrate peptide (300 μM). MNK1 and MNK2 were both assayed against eIF4E protein (0.5 mg/ml). NEK7 was assayed against […] (300 μM), PIM2 was assayed against […] (300 μM), ΔPH PKBβ-S474D was assayed against Crosstide (30 μM), PLK1 was assayed against […] (300 μM). PRK2 was assayed against Long S6 peptide, […] (30 μM), RSK2 was assayed against […] (30 μM), SRC was assayed against cdc2 peptide, […], (300 μM) and SRPK1 was assayed against peptide […] (300 μM). All enzymes were diluted in 50 mM Tris/HCl pH 7.5, 0.1 mM EGTA, 1 mg/ml BSA, 0.1% β-mercaptoethanol buffer and assayed in an incubation containing 50 mM Tris/HCl pH7.5, 0.1 mM EGTA, 0.1% β-mercaptoethanol, CAMK-1 (5-20 mU) diluted in 50 mM Tris/HCl pH 7.5, 0.1 mM EGTA, 1 mg/ml BSA, 0.1% β-mercaptoethanol is assayed against substrate peptide […] in an incubation containing 50 mM Tris/HCl pH 7.5, 0.1 mM EGTA, 0.5 mM CaCl2, 0.3 μM calmodulin, 0.1% β-mereaptoethanol, 300 μM substrate peptide, 10 mM magnesium acetate and 0.05 mM [^33P-γ-ATP] (500-1000 cpm/pmole). EF2K (5-20 mU) diluted in 50 mM Hepes pH 6.6, 0.1% β-mercaptoethanol, 1 mg/ml BSA is assayed against a substrate peptide […] in an incubation containing 50 mM Hepes pH 6.6, 0.2 mM CaCl2, 0.3 μM Calmodulin, 0.05% b-mercaptoethanol, 300 μM substrate peptide, 10 mM magnesium acetate and 0.05 mM [^33P-γ-ATP] (500-1000 cpm/pmole).

IKKb = target: T2, IKKb (Homo sapiens, UniProt O14920); conditions: read-out: IKKb activity as percentage of control without inhibitor
T2 sequence (O14920 1-756): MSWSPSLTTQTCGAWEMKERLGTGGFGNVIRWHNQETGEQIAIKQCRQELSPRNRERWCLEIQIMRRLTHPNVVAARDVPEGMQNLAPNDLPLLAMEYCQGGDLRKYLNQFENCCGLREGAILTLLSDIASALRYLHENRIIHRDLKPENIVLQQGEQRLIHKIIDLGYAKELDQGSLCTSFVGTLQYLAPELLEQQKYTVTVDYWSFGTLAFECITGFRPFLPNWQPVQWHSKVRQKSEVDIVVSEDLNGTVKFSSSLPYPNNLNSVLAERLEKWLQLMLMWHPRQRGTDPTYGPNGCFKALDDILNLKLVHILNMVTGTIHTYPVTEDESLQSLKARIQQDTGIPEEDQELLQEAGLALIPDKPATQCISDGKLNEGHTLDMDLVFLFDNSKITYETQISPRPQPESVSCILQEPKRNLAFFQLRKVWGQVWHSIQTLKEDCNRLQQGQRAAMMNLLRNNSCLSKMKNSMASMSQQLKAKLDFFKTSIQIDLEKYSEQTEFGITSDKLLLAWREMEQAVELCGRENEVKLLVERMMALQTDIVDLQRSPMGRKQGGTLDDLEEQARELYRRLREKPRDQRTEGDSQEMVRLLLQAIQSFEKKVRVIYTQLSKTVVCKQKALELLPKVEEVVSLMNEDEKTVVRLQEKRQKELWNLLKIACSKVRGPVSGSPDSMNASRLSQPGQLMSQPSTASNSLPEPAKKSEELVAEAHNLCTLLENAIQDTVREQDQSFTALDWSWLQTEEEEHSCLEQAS
Procedure: as §1, §2

CAMK-1 = CAMK-1 (Homo sapiens, UniProt Q14012); conditions: read-out: CAMK-1 activity as percentage of control without inhibitor
Procedure: as §1, §2

Row | SMILES | remaining activity at 1 µM (ERK8; inhibitor 1 μM) | remaining activity at 10 µM (ERK8; inhibitor 10 μM) | remaining activity at 1 µM (IKKb; inhibitor 1 μM) | remaining activity at 10 µM (IKKb; inhibitor 10 μM) | remaining activity at 1 µM (CAMK-1; inhibitor 1 μM) | remaining activity at 10 µM (CAMK-1; inhibitor 10 μM) | remaining activity at 1 µM (ERK8) | remaining activity at 10 µM (ERK8) | remaining activity at 1 µM (IKKb) | remaining activity at 10 µM (IKKb) | remaining activity at 1 µM (CAMK-1) | remaining activity at 10 µM (CAMK-1)
1 | COc1ccc2c3c([nH]c2c1)C(C)=NCC3 [Harmaline] | 58% | 21% | 78% | 82% | 99% | 110% |  |  |  |  |  | 
2 | COc1ccc2c(c1)[nH]c1c(C)nccc12 [Harmine] |  |  |  |  |  |  | 25% | 19% | 97% | 73% | 107% | 94%
3 | CC1=NCCc2c1[nH]c1cc(O)ccc21 [Harmalol] | 41% | 21% | 93% | 69% | 93% | 60% |  |  |  |  |  | 

From patent publication US20100063085A1, “METHOD OF TREATING LEARNING IMPAIRMENT IN DOWN'S SYNDROME SUBJECTS” (University Court of The University of Dundee, priority 2008, published 2010)
